The supplement of paper PMC10733146

How the values were obtained:
Assay in all cases: viability relative to DMSO control (fraction); higher = less drug effect (more viable cells)
Details in all cases: 48 h
[1] = tested on: primary AML patient cells (S006)
How it was run: (§1)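 Primary mononuclear tumour cells (Ficoll-isolated from blood or bone marrow, or processed lymph node; fresh or cryopreserved) were plated at 4 × 10^4 cells per well in 384-well plates with pre-plated compounds at five concentrations, one well each. Medium was RPMI-1640 with penicillin/streptomycin, L-glutamine and human serum, at 37 °C and 5% CO2 for 48 h. Viability was read as CellTiter-Glo luminescence relative to the median of 16 inner DMSO wells.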

[2] = tested on: primary B-PLL patient cells (S016)
How it was run: as §1

[3] = tested on: primary CLL patient cells (S031)
How it was run: as §1

[4] = tested on: primary AML patient cells (S009)
How it was run: as §1

[5] = tested on: primary MCL patient cells (S063)
How it was run: as §1

[6] = tested on: primary BL patient cells (S005)
How it was run: as §1

[7] = tested on: primary MCL patient cells (S053)
How it was run: as §1

[8] = tested on: primary ALL patient cells (S088)
How it was run: as §1

[9] = tested on: primary AML patient cells (S056)
How it was run: as §1

[10] = tested on: primary MCL patient cells (S041)
How it was run: as §1

[11] = tested on: primary AML patient cells (S060)
How it was run: as §1

[12] = tested on: primary AML patient cells (S071)
How it was run: as §1

[13] = tested on: primary AML patient cells (S012)
How it was run: as §1

[14] = tested on: primary AML patient cells (S085)
How it was run: as §1

[15] = tested on: primary FL patient cells (S087)
How it was run: as §1

[16] = tested on: primary CLL patient cells (S043)
How it was run: as §1

[17] = tested on: primary AML patient cells (S017)
How it was run: as §1

[18] = tested on: primary AML patient cells (S072)
How it was run: as §1

[19] = tested on: primary AML patient cells (S079)
How it was run: as §1

[20] = tested on: primary DLBCL patient cells (S082)
How it was run: as §1

C/C=C1\NC(=O)[C@H]2CSSCC/C=C/[C@H](CC(=O)N[C@H](C(C)C)C(=O)N2)OC(=O)[C@H](C(C)C)NC1=O [Romidepsin]
viability ([1]; 0.00032 µM): 1
viability ([1]; 0.0016 µM): 0.911
viability ([1]; 0.008 µM): 0.477
viability ([1]; 0.04 µM): 0.127
viability ([1]; 0.2 µM): 0.0886
viability ([2]; 0.00032 µM): 0.91
viability ([2]; 0.0016 µM): 0.807
viability ([2]; 0.008 µM): 0.0756
viability ([2]; 0.04 µM): 0.055
viability ([2]; 0.2 µM): 0.073
viability ([3]; 0.00032 µM): 1.07
viability ([3]; 0.0016 µM): 0.717
viability ([3]; 0.008 µM): 0.0898
viability ([3]; 0.04 µM): 0.061
viability ([3]; 0.2 µM): 0.0838
viability ([4]; 0.00032 µM): 1.02
viability ([4]; 0.0016 µM): 0.614
viability ([4]; 0.008 µM): 0.308
viability ([4]; 0.04 µM): 0.24
viability ([4]; 0.2 µM): 0.199
viability ([5]; 0.00032 µM): 0.923
viability ([5]; 0.0016 µM): 0.968
viability ([5]; 0.008 µM): 0.0338
viability ([5]; 0.04 µM): 0.0187
viability ([5]; 0.2 µM): 0.0209
viability ([6]; 0.00032 µM): 1
viability ([6]; 0.0016 µM): 0.948
viability ([6]; 0.008 µM): 0.63
viability ([6]; 0.04 µM): 0.564
viability ([6]; 0.2 µM): 0.538
viability ([7]; 0.00032 µM): 0.951
viability ([7]; 0.0016 µM): 0.191
viability ([7]; 0.008 µM): 0.0849
viability ([7]; 0.04 µM): 0.0845
viability ([7]; 0.2 µM): 0.0907
viability ([8]; 0.00032 µM): 0.851
viability ([8]; 0.0016 µM): 0.577
viability ([8]; 0.008 µM): 0.123
viability ([8]; 0.04 µM): 0.0858
viability ([8]; 0.2 µM): 0.0855
viability ([9]; 0.00032 µM): 0.924
viability ([9]; 0.0016 µM): 0.89
viability ([9]; 0.008 µM): 0.156
viability ([9]; 0.04 µM): 0.0512
viability ([9]; 0.2 µM): 0.0574
viability ([10]; 0.00032 µM): 0.932
viability ([10]; 0.0016 µM): 0.817
viability ([10]; 0.008 µM): 0.222
viability ([10]; 0.04 µM): 0.175
viability ([10]; 0.2 µM): 0.194
viability ([11]; 0.00032 µM): 1.07
viability ([11]; 0.0016 µM): 1.05
viability ([11]; 0.008 µM): 0.464
viability ([11]; 0.04 µM): 0.0458
viability ([11]; 0.2 µM): 0.045
viability ([12]; 0.00032 µM): 0.887
viability ([12]; 0.0016 µM): 0.626
viability ([12]; 0.008 µM): 0.209
viability ([12]; 0.04 µM): 0.187
viability ([12]; 0.2 µM): 0.182
viability ([13]; 0.00032 µM): 1.1
viability ([13]; 0.0016 µM): 1.01
viability ([13]; 0.008 µM): 0.722
viability ([13]; 0.04 µM): 0.0806
viability ([13]; 0.2 µM): 0.0665
viability ([14]; 0.00032 µM): 1.04
viability ([14]; 0.0016 µM): 0.817
viability ([14]; 0.008 µM): 0.103
viability ([14]; 0.04 µM): 0.0584
viability ([14]; 0.2 µM): 0.0681
viability ([15]; 0.00032 µM): 0.978
viability ([15]; 0.0016 µM): 0.911
viability ([15]; 0.008 µM): 0.642
viability ([15]; 0.04 µM): 0.498
viability ([15]; 0.2 µM): 0.527
viability ([16]; 0.00032 µM): 0.92
viability ([16]; 0.0016 µM): 0.83
viability ([16]; 0.008 µM): 0.369
viability ([16]; 0.04 µM): 0.0933
viability ([16]; 0.2 µM): 0.084
viability ([17]; 0.00032 µM): 1.02
viability ([17]; 0.0016 µM): 0.866
viability ([17]; 0.008 µM): 0.29
viability ([17]; 0.04 µM): 0.302
viability ([17]; 0.2 µM): 0.332
viability ([18]; 0.00032 µM): 0.97
viability ([18]; 0.0016 µM): 0.671
viability ([18]; 0.008 µM): 0.243
viability ([18]; 0.04 µM): 0.192
viability ([18]; 0.2 µM): 0.187
viability ([19]; 0.00032 µM): 0.978
viability ([19]; 0.0016 µM): 0.85
viability ([19]; 0.008 µM): 0.269
viability ([19]; 0.04 µM): 0.31
viability ([19]; 0.2 µM): 0.304
viability ([20]; 0.00032 µM): 1.02
viability ([20]; 0.0016 µM): 0.878
viability ([20]; 0.008 µM): 0.111
viability ([20]; 0.04 µM): 0.0272
viability ([20]; 0.2 µM): 0.029

COc1cccc2c1C(=O)c1c(O)c3c(c(O)c1C2=O)C[C@@](O)(C(C)=O)C[C@@H]3O[C@H]1C[C@H](N)[C@H](O)[C@H](C)O1 [Daunorubicin]
viability ([1]; 0.0016 µM): 1.19
viability ([1]; 0.008 µM): 0.923
viability ([1]; 0.04 µM): 0.248
viability ([1]; 0.2 µM): 0.075
viability ([1]; 1 µM): 0.0282
viability ([2]; 0.0016 µM): 1.21
viability ([2]; 0.008 µM): 0.74
viability ([2]; 0.04 µM): 0.0721
viability ([2]; 0.2 µM): 0.0359
viability ([2]; 1 µM): 0.0137
viability ([3]; 0.0016 µM): 0.982
viability ([3]; 0.008 µM): 0.809
viability ([3]; 0.04 µM): 0.265
viability ([3]; 0.2 µM): 0.0431
viability ([3]; 1 µM): 0.0162
viability ([4]; 0.0016 µM): 1.1
viability ([4]; 0.008 µM): 0.833
viability ([4]; 0.04 µM): 0.722
viability ([4]; 0.2 µM): 0.378
viability ([4]; 1 µM): 0.0702
viability ([5]; 0.0016 µM): 1.2
viability ([5]; 0.008 µM): 1.14
viability ([5]; 0.04 µM): 0.979
viability ([5]; 0.2 µM): 0.528
viability ([5]; 1 µM): 0.0178
viability ([6]; 0.0016 µM): 1.06
viability ([6]; 0.008 µM): 1.09
viability ([6]; 0.04 µM): 1.02
viability ([6]; 0.2 µM): 0.929
viability ([6]; 1 µM): 0.716
viability ([7]; 0.0016 µM): 1.12
viability ([7]; 0.008 µM): 0.692
viability ([7]; 0.04 µM): 0.363
viability ([7]; 0.2 µM): 0.307
viability ([7]; 1 µM): 0.446
viability ([8]; 0.0016 µM): 1.13
viability ([8]; 0.008 µM): 0.849
viability ([8]; 0.04 µM): 0.235
viability ([8]; 0.2 µM): 0.0841
viability ([8]; 1 µM): 0.0273
viability ([9]; 0.0016 µM): 0.96
viability ([9]; 0.008 µM): 0.881
viability ([9]; 0.04 µM): 0.258
viability ([9]; 0.2 µM): 0.146
viability ([9]; 1 µM): 0.0683
viability ([10]; 0.0016 µM): 1.16
viability ([10]; 0.008 µM): 1.11
viability ([10]; 0.04 µM): 0.931
viability ([10]; 0.2 µM): 0.323
viability ([10]; 1 µM): 0.0341
viability ([11]; 0.0016 µM): 1.16
viability ([11]; 0.008 µM): 1.14
viability ([11]; 0.04 µM): 1.07
viability ([11]; 0.2 µM): 1.14
viability ([11]; 1 µM): 0.0333
viability ([12]; 0.0016 µM): 1.04
viability ([12]; 0.008 µM): 0.272
viability ([12]; 0.04 µM): 0.128
viability ([12]; 0.2 µM): 0.118
viability ([12]; 1 µM): 0.095
viability ([13]; 0.0016 µM): 1
viability ([13]; 0.008 µM): 1.01
viability ([13]; 0.04 µM): 0.968
viability ([13]; 0.2 µM): 0.922
viability ([13]; 1 µM): 0.083
viability ([14]; 0.0016 µM): 1.27
viability ([14]; 0.008 µM): 0.865
viability ([14]; 0.04 µM): 0.312
viability ([14]; 0.2 µM): 0.164
viability ([14]; 1 µM): 0.0173
viability ([15]; 0.0016 µM): 1.13
viability ([15]; 0.008 µM): 1.03
viability ([15]; 0.04 µM): 0.856
viability ([15]; 0.2 µM): 0.693
viability ([15]; 1 µM): 0.588
viability ([16]; 0.0016 µM): 1.11
viability ([16]; 0.008 µM): 1.12
viability ([16]; 0.04 µM): 0.834
viability ([16]; 0.2 µM): 0.33
viability ([16]; 1 µM): 0.0261
viability ([17]; 0.0016 µM): 1.1
viability ([17]; 0.008 µM): 1.13
viability ([17]; 0.04 µM): 1.07
viability ([17]; 0.2 µM): 0.745
viability ([17]; 1 µM): 0.0449
viability ([18]; 0.0016 µM): 1.18
viability ([18]; 0.008 µM): 1.04
viability ([18]; 0.04 µM): 0.844
viability ([18]; 0.2 µM): 0.589
viability ([18]; 1 µM): 0.0642
viability ([19]; 0.0016 µM): 1.03
viability ([19]; 0.008 µM): 1.08
viability ([19]; 0.04 µM): 0.78
viability ([19]; 0.2 µM): 0.659
viability ([19]; 1 µM): 0.0276
viability ([20]; 0.0016 µM): 1.1
viability ([20]; 0.008 µM): 1.07
viability ([20]; 0.04 µM): 0.838
viability ([20]; 0.2 µM): 0.714
viability ([20]; 1 µM): 0.0208
